Assay results reported in US6069130A, “Ketoheterocyclic inhibitors of factor Xa” (COR Therapeutics, Inc., priority 1995, dated 2000).

Tests used:
[1] = system: thrombus growth in abdominal vena cava; experiment: rabbit deep vein thrombosis model, inhibition of thrombus growth; format: in vivo; conditions: for of Thrombosis (inhibition of thrombus growth): rabbit
Source text: (§1) Rabbits were anesthetized with I.M. injections of Ketamine, Xylazine, and Acepromazine cocktail. A standardized protocol consisted of insertion of a thrombogenic cotton thread and copper wire apparatus into the abdominal vena cava of the anesthetized rabbit. A non-occlusive thrombus was allowed to develop in the central venous circulation and inhibition of thrombus growth was used as a measure of the antithrombotic activity of the studied compounds. Test agents or control saline were administered through a marginal ear vein catheter. A femoral vein catheter was used for blood sampling prior to and during steady state infusion of test compound. Initiation of thrombus formation begins immediately after advancement of the cotton thread apparatus into the central venous circulation. Test compounds were administered from time=30 min to time=150 min at which the experiment was terminated. The rabbits were euthanized and the thromidus excised by surgical dissection and characterized by weight and histology. Blood samples were analyzed for changes in hematological and coagulation parameters.

[2] = coagulation parameters (aPTT, PT) in rabbit venous thrombosis model; format: in vivo; conditions: for fold increase over baseline PT / fold increase over baseline aPTT: rabbit, steady state, mean ± SD
Source text: as §1

[3] = rabbit, in vivo
Source text: as §1

[4] = highest dose (100 μg/kg+2.57 μg/kg/min)

## NC(N)=NCCCC(N)C(=O)NCC(=O)NC(CCCN=C(N)N)C(=O)c1nccs1 [H-D-Arg-Gly-Arg-thiazole, (D)-Arg-Gly-Arg-thiazole]
[1]; at the higher doses evaluated
  antithrombotic efficacy in the rabbit venous thrombosis model (in words): demonstrated antithrombotic efficacy at the higher doses evaluated
[1]; i.v. 50 μg/kg + 1.28 μg/kg/min
  of Thrombosis (inhibition of thrombus growth): -7.84
[1]; i.v. 75 μg/kg + 1.93 μg/kg/min
  of Thrombosis (inhibition of thrombus growth): 42.955
[1]; i.v. 100 μg/kg + 2.57 μg/kg/min
  of Thrombosis (inhibition of thrombus growth): 117.72
[2]; [4]
  effect on PT prolongation (in words): no significant effect
  effect on aPTT prolongation (in words): no significant effect
[2]; 50 μg/kg + 1.28 μg/kg/min
  fold increase over baseline PT: 1.00 ± 0.00 fold
  fold increase over baseline aPTT: 1.00 ± 0.03 fold
[2]; 75 μg/kg + 1.93 μg/kg/min
  fold increase over baseline PT: 1.00 ± 0.00 fold
  fold increase over baseline aPTT: 1.02 ± 0.03 fold
[2]; 100 μg/kg + 2.57 μg/kg/min
  fold increase over baseline PT: 0.83 ± 0.00 fold
  fold increase over baseline aPTT: 1.08 ± 0.02 fold
[3]
  effects on hematological parameters as compared to saline controls (in words): no significant effects
